Measured values taken from PubChem BioAssay AID1259407 (Chemical Carcinogenesis Research Information System (CCRIS), 2018).
Calls of active or inactive are those of the source. How the calls were made is not given here.

Tested on: CCRIS mutagenicity, Ames/micronucleus/aberration tests
Test: CCRIS mutagenicity studies
[1] = Test System: AMES SALMONELLA TYPHIMURIUM, Strain/Indicator: TA98, Metabolic Activation: NONE, Method: PREINCUBATION
[2] = Test System: AMES SALMONELLA TYPHIMURIUM, Strain/Indicator: TA100, Metabolic Activation: NONE, Method: PREINCUBATION
[3] = Test System: AMES SALMONELLA TYPHIMURIUM, Strain/Indicator: TA1535, Metabolic Activation: NONE, Method: PREINCUBATION

Q: What does the source list for `Nc1nc(N)nc(-c2ccccc2)n1`?
A: mutagenic call [1]: inactive; negative; mutagenic call (Test System: AMES SALMONELLA TYPHIMURIUM, Strain/Indicator: TA98, Metabolic Activation: RAT, LIVER, S-9, PHENOBARBITAL AND BETA-NAPHTHOFLAVONE, Method: PREINCUBATION): inactive; negative; mutagenic call [2]: inactive; negative; mutagenic call (Test System: AMES SALMONELLA TYPHIMURIUM, Strain/Indicator: TA100, Metabolic Activation: RAT, LIVER, S-9, PHENOBARBITAL AND BETA-NAPHTHOFLAVONE, Method: PREINCUBATION): inactive; negative; mutagenic call (Test System: AMES SALMONELLA TYPHIMURIUM, Strain/Indicator: TA102, Metabolic Activation: NONE, Method: PREINCUBATION): inactive; negative; mutagenic call (Test System: AMES SALMONELLA TYPHIMURIUM, Strain/Indicator: TA102, Metabolic Activation: RAT, LIVER, S-9, PHENOBARBITAL AND BETA-NAPHTHOFLAVONE, Method: PREINCUBATION): inactive; negative; mutagenic call (Test System: AMES SALMONELLA TYPHIMURIUM, Strain/Indicator: TA104, Metabolic Activation: NONE, Method: PREINCUBATION): inactive; negative; mutagenic call (Test System: AMES SALMONELLA TYPHIMURIUM, Strain/Indicator: TA104, Metabolic Activation: RAT, LIVER, S-9, PHENOBARBITAL AND BETA-NAPHTHOFLAVONE, Method: PREINCUBATION): inactive; negative; mutagenic call [3]: inactive; negative; mutagenic call (Test System: AMES SALMONELLA TYPHIMURIUM, Strain/Indicator: TA1535, Metabolic Activation: RAT, LIVER, S-9, PHENOBARBITAL AND BETA-NAPHTHOFLAVONE, Method: PREINCUBATION): inactive; negative; mutagenic call (Test System: AMES SALMONELLA TYPHIMURIUM, Strain/Indicator: TA1537, Metabolic Activation: NONE, Method: PREINCUBATION): inactive; negative; mutagenic call (Test System: AMES SALMONELLA TYPHIMURIUM, Strain/Indicator: TA1537, Metabolic Activation: RAT, LIVER, S-9, SODIUM PHENOBARBITAL AND 5,6-BENZOFLAVONE, Method: PREINCUBATION): inactive; negative; mutagenic call (Test System: E. COLI, Strain/Indicator: WP2UVRA/PKM101, Metabolic Activation: NONE, Method: PREINCUBATION): inactive; negative; mutagenic call (Test System: E. COLI, Strain/Indicator: WP2UVRA/PKM101, Metabolic Activation: RAT, LIVER, S-9, SODIUM PHENOBARBITAL AND 5,6-BENZOFLAVONE, Method: PREINCUBATION): inactive; negative; mutagenic call (Test System: E. COLI, Strain/Indicator: WP2UVRA, Metabolic Activation: NONE, Method: PREINCUBATION): inactive; negative; mutagenic call (Test System: E. COLI, Strain/Indicator: WP2UVRA, Metabolic Activation: RAT, LIVER, S-9, PHENOBARBITAL AND BETA-NAPHTHOFLAVONE, Method: PREINCUBATION): inactive; negative

Q: How did the mutagenic call (Test System: AMES SALMONELLA TYPHIMURIUM, Strain/Indicator: TA98, Metabolic Activation: NONE, Method: STANDARD PLATE) turn out when `CC(=O)OC1Cc2c(C)ccc3cc4c(ccc5ccccc54)c1c23` (configuration not stated) was run?
A: active; positive

Q: And the mutagenic call (Test System: AMES SALMONELLA TYPHIMURIUM, Strain/Indicator: TA100, Metabolic Activation: NONE, Method: STANDARD PLATE)?
A: active; positive

Q: What does the source list for `CC(C)C(C)(C)C(C)(C)C(C)(C)S`?
A: mutagenic call (Test System: AMES SALMONELLA TYPHIMURIUM, Strain/Indicator: TA97, Metabolic Activation: HAMSTER, LIVER, S-9, AROCLOR 1254 (10%), Method: PREINCUBATION): inactive; negative; mutagenic call (Test System: AMES SALMONELLA TYPHIMURIUM, Strain/Indicator: TA97, Metabolic Activation: HAMSTER, LIVER, S-9, AROCLOR 1254 (10 OR 30%), Method: PREINCUBATION): inactive; negative; mutagenic call (Test System: AMES SALMONELLA TYPHIMURIUM, Strain/Indicator: TA97, Metabolic Activation: HAMSTER, LIVER, S-9, AROCLOR 1254 (30%), Method: PREINCUBATION): inactive; negative; mutagenic call (Test System: AMES SALMONELLA TYPHIMURIUM, Strain/Indicator: TA97, Metabolic Activation: NONE, Method: PREINCUBATION): inactive; negative; mutagenic call (Test System: AMES SALMONELLA TYPHIMURIUM, Strain/Indicator: TA97, Metabolic Activation: RAT, LIVER, S-9, AROCLOR 1254 (10 OR 30%), Method: PREINCUBATION): inactive; negative; mutagenic call (Test System: AMES SALMONELLA TYPHIMURIUM, Strain/Indicator: TA98, Metabolic Activation: HAMSTER, LIVER, S-9, AROCLOR 1254 (10 OR 30%), Method: PREINCUBATION): inactive; negative; mutagenic call [1]: inactive; negative; mutagenic call (Test System: AMES SALMONELLA TYPHIMURIUM, Strain/Indicator: TA98, Metabolic Activation: RAT, LIVER, S-9, AROCLOR 1254 (10 OR 30%), Method: PREINCUBATION): inactive; negative; mutagenic call (Test System: AMES SALMONELLA TYPHIMURIUM, Strain/Indicator: TA100, Metabolic Activation: HAMSTER, LIVER, S-9, AROCLOR 1254 (10 OR 30%), Method: PREINCUBATION): inactive; negative; mutagenic call [2]: inactive; negative; mutagenic call (Test System: AMES SALMONELLA TYPHIMURIUM, Strain/Indicator: TA100, Metabolic Activation: RAT, LIVER, S-9, AROCLOR 1254 (10 OR 30%), Method: PREINCUBATION): inactive; negative; mutagenic call (Test System: AMES SALMONELLA TYPHIMURIUM, Strain/Indicator: TA1535, Metabolic Activation: HAMSTER, LIVER, S-9, AROCLOR 1254 (10 OR 30%), Method: PREINCUBATION): inactive; negative; mutagenic call [3]: inactive; negative; mutagenic call (Test System: AMES SALMONELLA TYPHIMURIUM, Strain/Indicator: TA1535, Metabolic Activation: RAT, LIVER, S-9, AROCLOR 1254 (10 OR 30%), Method: PREINCUBATION): inactive; negative
